# Measured values reported in patent publication US9995734B2, “Human T cell line assay for evaluating the immunologic identity of glatiramer acetate preparations” (Mylan Inc., priority 2013, dated 2018).
# Tested on: Donor 3 GMA T-Cell Lines
# Experiment: ATP proliferation assay (CellTiter Glo), Donor 3 GMA T-cell lines, incl. reactivity to non-canonical GA peptides
# Format: cell-based, human
substance,measurement,setting,value
poly (Glu-Ala-Tyr; 1:1:1) [GAT 111],"Proliferation (luminescent ATP assay), Mean","T-cell line 165-B5G, 2.5 μg/mL antigen, Day 55 of culturing, No Antigen Value 846",886 RLU
same,"Proliferation (luminescent ATP assay), Mean","T-cell line 165-B5G, 5 μg/mL antigen, Day 55 of culturing, No Antigen Value 846",947 RLU
same,"Proliferation (luminescent ATP assay), Mean","T-cell line 165-B5G, 10 μg/mL antigen, Day 55 of culturing, No Antigen Value 846",931 RLU
same,"Proliferation (luminescent ATP assay), Mean","T-cell line 165-C5G, 1.25 μg/mL antigen, autologous B-LCL",445 RLU
same,"Proliferation (luminescent ATP assay), Mean","T-cell line 165-C5G, 2.5 μg/mL antigen, autologous B-LCL",406 RLU
same,"Proliferation (luminescent ATP assay), Mean","T-cell line 165-C5G, 5 μg/mL antigen, autologous B-LCL",422 RLU
same,"Proliferation (luminescent ATP assay), Mean","T-cell line 165-C5G, 10 μg/mL antigen, autologous B-LCL",430 RLU
same,"Proliferation (luminescent ATP assay), Mean","T-cell line 165-E7G, 1.25 μg/mL antigen, autologous B-LCL, Day 55",1896 RLU
same,"Proliferation (luminescent ATP assay), Mean","T-cell line 165-E7G, 2.5 μg/mL antigen, autologous B-LCL, Day 55",2001 RLU
same,"Proliferation (luminescent ATP assay), Mean","T-cell line 165-E7G, 5 μg/mL antigen, autologous B-LCL, Day 55",1285 RLU
same,"Proliferation (luminescent ATP assay), Mean","T-cell line 165-E7G, 10 μg/mL antigen, autologous B-LCL, Day 55",2176 RLU
same,"Proliferation (luminescent ATP assay), Mean","T-cell line 165-E9G, 1 μg/mL antigen, Day 50 of culturing, No Antigen Value 1742",1528 RLU
same,"Proliferation (luminescent ATP assay), Mean","T-cell line 165-E9G, 1.25 μg/mL antigen, autologous B-LCL",154 RLU
same,"Proliferation (luminescent ATP assay), Mean","T-cell line 165-E9G, 2.5 μg/mL antigen, autologous B-LCL",240 RLU
same,"Proliferation (luminescent ATP assay), Mean","T-cell line 165-E9G, 3 μg/mL antigen, Day 50 of culturing, No Antigen Value 1742",1454 RLU
same,"Proliferation (luminescent ATP assay), Mean","T-cell line 165-E9G, 5 μg/mL antigen, autologous B-LCL",240 RLU
same,"Proliferation (luminescent ATP assay), Mean","T-cell line 165-E9G, 10 μg/mL antigen, autologous B-LCL",153 RLU
same,"Proliferation (luminescent ATP assay), Mean","T-cell line 165-E9G, 30 μg/mL antigen, Day 50 of culturing, No Antigen Value 1742",1301 RLU
same,"Proliferation (luminescent ATP assay), Mean","T-cell line 165-E9G, 10 μpg/mL antigen, Day 50 of culturing, No Antigen Value 1742",1462 RLU
same,"Proliferation (luminescent ATP assay), Mean","T-cell line 165-F5G, 1.25 μg/mL antigen, autologous B-LCL",139 RLU
same,"Proliferation (luminescent ATP assay), Mean","T-cell line 165-F5G, 2.5 μg/mL antigen, autologous B-LCL",121 RLU
same,"Proliferation (luminescent ATP assay), Mean","T-cell line 165-F5G, 5 μg/mL antigen, autologous B-LCL",142 RLU
same,"Proliferation (luminescent ATP assay), Mean","T-cell line 165-F5G, 10 μg/mL antigen, autologous B-LCL",122 RLU
same,"Proliferation (luminescent ATP assay), Mean","T-cell line 165-F10G, 1 μg/mL antigen, Day 50 of culturing, No Antigen Value 3752",3575 RLU
same,"Proliferation (luminescent ATP assay), Mean","T-cell line 165-F10G, 1.25 μg/mL antigen, autologous B-LCL",929 RLU
same,"Proliferation (luminescent ATP assay), Mean","T-cell line 165-F10G, 2.5 μg/mL antigen, autologous B-LCL",1342 RLU
same,"Proliferation (luminescent ATP assay), Mean","T-cell line 165-F10G, 3 μg/mL antigen, Day 50 of culturing, No Antigen Value 3752",2989 RLU
same,"Proliferation (luminescent ATP assay), Mean","T-cell line 165-F10G, 5 μg/mL antigen, autologous B-LCL",1091 RLU
same,"Proliferation (luminescent ATP assay), Mean","T-cell line 165-F10G, 10 μg/mL antigen, Day 50 of culturing, No Antigen Value 3752",2876 RLU
same,"Proliferation (luminescent ATP assay), Mean","T-cell line 165-F10G, 10 μg/mL antigen, autologous B-LCL",1054 RLU
same,"Proliferation (luminescent ATP assay), Mean","T-cell line 165-F10G, 30 μg/mL antigen, Day 50 of culturing, No Antigen Value 3752",2299 RLU
same,"Proliferation (luminescent ATP assay), Mean","T-cell line 165-H11G, 1 μg/mL antigen, Day 50 of culturing, No Antigen Value 1485",2448 RLU
same,"Proliferation (luminescent ATP assay), Mean","T-cell line 165-H11G, 1.25 μg/mL antigen, autologous B-LCL",49 RLU
same,"Proliferation (luminescent ATP assay), Mean","T-cell line 165-H11G, 2.5 μg/mL antigen, autologous B-LCL",320 RLU
same,"Proliferation (luminescent ATP assay), Mean","T-cell line 165-H11G, 3 μg/mL antigen, Day 50 of culturing, No Antigen Value 1485",2294 RLU
same,"Proliferation (luminescent ATP assay), Mean","T-cell line 165-H11G, 5 μg/mL antigen, autologous B-LCL",304 RLU
same,"Proliferation (luminescent ATP assay), Mean","T-cell line 165-H11G, 10 μg/mL antigen, Day 50 of culturing, No Antigen Value 1485",2102 RLU
same,"Proliferation (luminescent ATP assay), Mean","T-cell line 165-H11G, 10 μg/mL antigen, autologous B-LCL",336 RLU
same,"Proliferation (luminescent ATP assay), Mean","T-cell line 165-H11G, 30 μg/mL antigen, Day 50 of culturing, No Antigen Value 1485",1599 RLU
